In BindingDB's records for doi:10.1021/jm050686b (Rheinische Friedrich-Wilhelms-Universitat Bonn, 2005) one finds Ki data, which are given here for one molecule.

The assay deals with Papain (Carica papaya) (UniProt P00784). As to the kind of experiment: Enzyme activities were calculated from kinetic measurements performed by spectrophotometric detection of the product p-nitroaniline (pNA) at wavelength of 405 nm. Progress curves were monitored over 10 min. Rate was determined for 7 different inhibitor concentrations in duplicate. The apparent inhibition constant, Ki (app) was determined by fitting.
Chain of Papain (Carica papaya) (P00784 whole entry, looked up): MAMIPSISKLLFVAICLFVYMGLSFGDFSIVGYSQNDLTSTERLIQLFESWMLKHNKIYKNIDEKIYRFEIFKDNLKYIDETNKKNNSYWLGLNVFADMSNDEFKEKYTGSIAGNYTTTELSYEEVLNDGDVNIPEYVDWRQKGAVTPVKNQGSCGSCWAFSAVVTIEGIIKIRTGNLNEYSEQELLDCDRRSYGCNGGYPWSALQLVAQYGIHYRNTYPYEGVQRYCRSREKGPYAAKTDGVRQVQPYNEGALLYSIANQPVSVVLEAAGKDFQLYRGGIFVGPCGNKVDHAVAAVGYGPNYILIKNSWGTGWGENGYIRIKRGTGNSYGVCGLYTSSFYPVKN

As for `CC(C)(C)OC(=O)N[C@@H](Cc1ccsc1)C(=O)NCC#N` [tert-butyl N-[(1S)-1-[(cyanomethyl)carbamoyl]-2-(thiophen-3-yl)ethyl]carbamate], the Ki is 45 µM.
